Experimental findings from ChEMBL document CHEMBL4145624, “MDN-0185, an Antiplasmodial Polycyclic Xanthone Isolated from Micromonospora sp. CA-256353” (J Nat Prod, 2018) are described below.

For this assay, the system named is Plasmodium falciparum. As to the kind of experiment: Antiplasmodial activity against late-ring/early trophozoite intraerythrocytic stage of synchronized Plasmodium falciparum 3D7 after 72 hrs by LDH assay. In kind it is functional, organism-based. The following applies: 3D7, 72 h.

Take `Cc1cc2c(c(=O)[nH]1)C(=O)[C@]1(O)c3c(O)c4c(c5c3[C@@H](C[C@@H]1C2=O)OCO5)O[C@@H]1[C@H](O)C=CC[C@H]1C4=O`: the 50% inhibitory concentration (IC50) worked out at 9 nM.
